Data reported in patent publication US8524691B2, “Phosphonated rifamycins and uses thereof for the prevention and treatment of bone and joint infections” (The Medicines Company, priority 2008, dated 2013).
In brackets after ≈: the same amount, converted by molar mass. Where two headings read alike, the source gives them in different places.

How the values were obtained:
[1] = test system: S. aureus ATCC 13709^A, Novobiocin and Rifampicin resistant variant; experiment: Antibacterial susceptibility (MIC), NCCLS broth microdilution; format: cell-based
Procedure, shortened: (§1)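 Two-fold serial dilutions in DMSO were tested in cation-adjusted Mueller Hinton broth, following NCCLS M26-A, at 5×10^5 c.f.u./mL with 1.25% DMSO final, in duplicate. Plates were incubated at 37 °C for 18 h. MIC was the lowest concentration inhibiting visible growth.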

[2] = test system: S. aureus ATCC 29213; experiment: as above; format: cell-based; details: for Minimum inhibitory concentration, S. aureus ATCC 29213: CAMHB, 37° C., 18 h
Procedure, shortened: as §1

[3] = test system: S. aureus ATCC 13709; experiment: microbe, parasite or virus in culture; format: cell-based; details: for Minimum inhibitory concentration, S. aureus ATCC 13709: CAMHB, 37° C., 18 h; for Antibacterial activity (in words, from Table 1): S. aureus MIC
Procedure, shortened: as §1

[4] = test system: S. aureus ATCC 13709; experiment: microbe, parasite or virus in culture; format: cell-based; details: for Serum dependence of antibacterial activity (in words): MIC with versus without serum; for MIC: Staphylococcus aureus, ATCC13709, 18 h
[5] = format: in vitro ADME; details: for % Conversion (prodrug converted to parent drug after binding to bone): 24 h incubation, 37° C.
Experimental: Amounts of parent drug “regenerated” from the phosphonated prodrug were measured as follows. Washed bone powder-bound prodrugs from the above experiment were resuspended in 400 μL PBS+2% DMSO or in 400 μL 50% (v/v in PBS+2% DMSO) human or rat serum. The suspension was incubated overnight at 37° C., centrifuged at 13,000 rpm for 2 min and the supernatant was recovered. The amount of regenerated parent drug in the supernatant was determined by measurements using the microbiological assay that was previously described for the prodrugs themselves. The amount of prodrug was deduced from standard curves of known amounts of parent drug that were used as reference for each experiment. The amount of regenerated drug assessed by this bioassay was corroborated by MIC determination. The percentage of drug regenerated in PBS or serum after the overnight incubation (Table 2) was deduced from the difference between the amount of bound prodrug and the amount of regenerated drug (not shown).

[6] = test system: Novobiocin resistant mutant strain of S. aureus ATCC 13709; experiment: Prophylactic efficacy in rat model of S. aureus bone infection; format: in vivo; details: for Measured bacterial titer, test compound: 20 mg/kg parent drug equivalent, tibia 24 h postinfection; for Prophylactic activity in rat bone infection model (in words): 20 mg/kg, 1 day or 5 days prior to infection
Experimental: To determine the in vivo activity of bisphosphonated prodrugs of Rifamycin derived antibacterials in comparison to their non-bisphosphonated parents, compounds 18, 19, 48a, 59, 66, 89, 95, 102, 110, 142b and 164 and their parent drug rifabutin were used as prophylactic therapeutics in an animal model of infection. Specifically, a spontaneous Novobiocin resistant mutant strain of S. aureus ATCC 13709 (a clinical osteomyelitis isolate), was grown overnight at 37° C. in brain heart infusion broth (BHIB). After 16 h of growth, cells were subcultured into fresh BHIB and incubated for 4 to 5 h at 37° C. The cells were washed twice with phosphate-buffered saline (PBS) and resuspended in BHIB supplemented with 10% (vol./vol.) fetal bovine serum at a density of approximately 10^10 colony forming units (CFU)/ml (based upon turbidimetry). The suspension was aliquoted and a portion was used to check the CFU count. The culture was stored frozen (−80° C.) and was used without subculture. For use as an inoculum the culture was thawed, diluted in PBS and kept in an ice bath until it was used.
Animals were infected as described by O'Reilly et al. (Antimicrobial Agents and Chemotherapy (1992), 36(12): 2693-97) to generate the bone infection. Female CD rats (age, 57 to 70 days; n=5/group; Charles River, St-Constant, Canada) were anaesthetized by isofluorane before and during the surgery. Following complete induction of anesthesia, the rat was placed ventral side up and hair was shaved from the surgical site. The skin over the leg was cleaned and disinfected (proviodine-ethanol 70%). A longitudinal incision below the knee joint was made in the sagital plane. The incision was made over the bone below the “knee joint” (tibia head or condyle) but not completely extending to the ankle. A high speed drill fitted with a 2 mm bulb bit was used to drill a hole into the medullar cavity of the tibia. Rats were injected intra-tibially with 0.05 ml 5% sodium morrhuate (sclerosing agent) and then with 0.05 ml of S. aureus suspension (ca. 2×10^7 CFU/rat). The hole was sealed by applying a small amount of dry dental cement which immediately absorbs fluids and adheres to the site. The wound was closed using 3 metal skin clips. Moxifloxacin (as a positive control) was injected once at 10 mg/kg intravenously 1 h postinfection in saline, while the Rifabutin derived prodrugs (prepared in 0.9% saline) were injected at the dose indicated in Table 3 as a single intravenous bolus at different time points prior to the infection.
Infected rats were sacrificed by CO2 asphyxiation 24 h postinfection to monitor the bacterial CFU count. Infected tibiae were removed, dissected free of soft tissue, and weighed. The bones were ground, 50 mg of charcoal were added and the powder was resuspended in 5 ml 0.9% NaCl, serially diluted and processed for quantitative cultures. Treatment efficacy was measured in terms of Log viable bacteria (Log CFU per gram of bone). […] The limit of detection is 2 Log CFU. Statistical comparisons of viable bacterial counts for the different treated and untreated groups were performed with the Dunnett's multiple-comparison test. Differences were considered significant when the P value was <0.05 when comparing treated infected animals to the untreated infected ones. The doses used, the amount of time separating the treatment from the time of infection and the treatment outcomes are shown in Table 3.

[7] = single intravenous bolus 1 day prior to infection
[8] = single intravenous bolus 5 days prior to infection

Row | SMILES | Minimum inhibitory concentration, S. aureus ATCC 13709^A [1] | Minimum inhibitory concentration, S. aureus ATCC 29213 [2] | Minimum inhibitory concentration, S. aureus ATCC 13709 [3] | Minimum inhibitory concentration, ATCC 13709 + 50% Human Serum [4] | Minimum inhibitory concentration, ATCC 13709 + 50% Mouse Serum [4] | Minimum inhibitory concentration, ATCC 13709 + 50% Rat Serum [4] | Serum dependence of antibacterial activity (in words) [4] | Release of parent rifabutin from bone powder-bound prodrug (in words) [5] | % Conversion (prodrug converted to parent drug after binding to bone) ([5]; 50% Heat Inactivated Rat Serum) | % Conversion (prodrug converted to parent drug after binding to bone) ([5]; 50% Rat Serum) | % Conversion (prodrug converted to parent drug after binding to bone) ([5]; PBS) | Measured bacterial titer, test compound [6, 7] | Measured bacterial titer, test compound [6, 8] | Prophylactic activity in rat bone infection model (in words) [6] | Antibacterial activity (in words, from Table 1) [3] | other results
1 | CCC(=O)OCOC(=O)N[C@@H](CCCCNC(=O)CCC(P(=O)(O)O)P(=O)(O)O)C(=O)N(C)CC(=O)O[C@@H]1[C@@H](C)[C@@H](O)[C@@H](C)[C@H](OC(C)=O)[C@H](C)[C@@H](OC)/C=C/O[C@@]2(C)Oc3c(C)c(O)c4c(c3C2=O)C2=NC3(CCN(CC(C)C)CC3)NC2=C(NC(=O)/C(C)=C\C=C\[C@@H]1C)C4=O.N.N [Compound 95] | >128 µg/mL | 4 µg/mL | 4 µg/mL | 16 µg/mL | 0.0625 µg/mL | 0.0156 µg/mL | significant increase in antibacterial activity in serum | regeneration is clearly accelerated by the presence of serum | 0.13% | 0.14 ± 0.06% | 0.02% | 2.3 ± 0.57 Log CFU/g of bone | 3.75 ± 0.54 Log CFU/g of bone | active at 1 day and display activity similar to rifabutin at 5 days | – | –
2 | CCN(CC)CC.CO[C@H]1/C=C/O[C@@]2(C)Oc3c(C)c(O)c4c(c3C2=O)C2=NC3(CCN(CC(C)C)CC3)NC2=C(NC(=O)/C(C)=C\C=C\[C@H](C)[C@H](OC(=O)CN(C)C(=O)Nc2ccc(CC(P(=O)(O)O)P(=O)(O)O)cc2)[C@@H](C)[C@@H](O)[C@@H](C)[C@H](OC(C)=O)[C@@H]1C)C4=O [Compound 142b] | >128 µg/mL | 0.0625 µg/mL | 0.125 µg/mL | 0.5 µg/mL | 0.0625 µg/mL | 0.008 µg/mL | – | release significant amounts of the parent rifabutin once bound to bone powder, regardless of the presence of serum | 0.24 ± 0.04% | 0.22 ± 0.06% | 0.37 ± 0.08% | 2.14 ± 0.08 Log CFU/g of bone | 4.79 ± 1.40 Log CFU/g of bone | – | very low MICs whether in the absence or in the presence of serum | –
3 | CCN(CC)CC.CCN(CC)CC.CO[C@H]1/C=C/O[C@@]2(C)Oc3c(C)c(O)c4c(c3C2=O)C2=NC3(CCN(CC(C)C)CC3)N(C(=O)OCc3ccc(OC(=O)CCCC(P(=O)(O)O)P(=O)(O)O)cc3)C2=C(NC(=O)/C(C)=C\C=C\[C@H](C)[C@H](O)[C@@H](C)[C@@H](O)[C@@H](C)[C@H](OC(C)=O)[C@@H]1C)C4=O [Compound 18] | >128 µg/mL | 0.125 µg/mL | 0.125 µg/mL | 0.125 µg/mL | 0.125 µg/mL | 0.0156 µg/mL | – | release significant amounts of the parent rifabutin once bound to bone powder, regardless of the presence of serum | 0.55 ± 0.20% | 0.95 ± 0.40% | 0.66 ± 0.03% | 2.08 ± 0.02 Log CFU/g of bone | 2.91 ± 1.33 Log CFU/g of bone | active at 1 day and display activity similar to rifabutin at 5 days | very low MICs whether in the absence or in the presence of serum | –
4 | CO[C@H]1/C=C/O[C@@]2(C)Oc3c(C)c(O)c4c(c3C2=O)C2=NC3(CCN(CC(C)C)CC3)N(C(=O)OCc3cc(C)c(OC(=O)CCC(P(=O)(O)O)P(=O)(O)O)c(C)c3)C2=C(NC(=O)/C(C)=C\C=C\[C@H](C)[C@H](O)[C@@H](C)[C@@H](O)[C@@H](C)[C@H](OC(C)=O)[C@@H]1C)C4=O.N.N [Compound 19] | >128 µg/mL | 0.25 µg/mL | 0.25 µg/mL | 0.125 µg/mL | 0.0625 µg/mL | 0.0156 µg/mL | – | release significant amounts of the parent rifabutin once bound to bone powder, regardless of the presence of serum | 0.14% | 0.14% | 0.14% | 2.55 ± 0.69 Log CFU/g of bone | 3.69 ± 1.45 Log CFU/g of bone | active at 1 day and display activity similar to rifabutin at 5 days | very low MICs whether in the absence or in the presence of serum | –
5 | CCC(=O)OCOC(=O)N[C@@H](CCC(=O)NC(P(=O)(O)O)P(=O)(O)O)C(=O)N(C)CC(=O)O[C@@H]1[C@@H](C)[C@@H](O)[C@@H](C)[C@H](OC(C)=O)[C@H](C)[C@@H](OC)/C=C/O[C@@]2(C)Oc3c(C)c(O)c4c(c3C2=O)C2=NC3(CCN(CC(C)C)CC3)NC2=C(NC(=O)/C(C)=C\C=C\[C@@H]1C)C4=O [Compound 102] | – | – | – | – | – | – | significant increase in antibacterial activity in serum | – | – | – | – | 2.89 ± 1.13 Log CFU/g of bone | 5.38 ± 0.83 Log CFU/g of bone | active at 1 day and display activity similar to rifabutin at 5 days | – | MIC ([1]; Staphylococcus aureus, ATCC13709, read-out: Minimum inhibitory concentration, S. aureus ATCC 13709^A): > 128 µg/mL; MIC ([2]; Staphylococcus aureus, ATCC29213, 18 h, read-out: Minimum inhibitory concentration, S. aureus ATCC 29213): 2 µg/mL (≈ 1.48 µM); MIC ([3]; Staphylococcus aureus, ATCC13709, 18 h, read-out: Minimum inhibitory concentration, S. aureus ATCC 13709): 4 µg/mL (≈ 2.96 µM); MIC ([4]; read-out: Minimum inhibitory concentration, ATCC 13709 + 50% Human Serum): 16 µg/mL; MIC ([4]; read-out: Minimum inhibitory concentration, ATCC 13709 + 50% Mouse Serum): 0.0625 µg/mL; MIC ([4]; read-out: Minimum inhibitory concentration, ATCC 13709 + 50% Rat Serum): 0.0156 µg/mL; Release of parent rifabutin from bone powder-bound prodrug (in words) ([5]; PBS versus serum): regeneration is clearly accelerated by the presence of serum
